The target of one experiment is T1, ER (Homo sapiens, UniProt P03372).
T1 construct: host or cells: T47D and MCF7 human breast cancer cells
T1 sequence (P03372 1-595): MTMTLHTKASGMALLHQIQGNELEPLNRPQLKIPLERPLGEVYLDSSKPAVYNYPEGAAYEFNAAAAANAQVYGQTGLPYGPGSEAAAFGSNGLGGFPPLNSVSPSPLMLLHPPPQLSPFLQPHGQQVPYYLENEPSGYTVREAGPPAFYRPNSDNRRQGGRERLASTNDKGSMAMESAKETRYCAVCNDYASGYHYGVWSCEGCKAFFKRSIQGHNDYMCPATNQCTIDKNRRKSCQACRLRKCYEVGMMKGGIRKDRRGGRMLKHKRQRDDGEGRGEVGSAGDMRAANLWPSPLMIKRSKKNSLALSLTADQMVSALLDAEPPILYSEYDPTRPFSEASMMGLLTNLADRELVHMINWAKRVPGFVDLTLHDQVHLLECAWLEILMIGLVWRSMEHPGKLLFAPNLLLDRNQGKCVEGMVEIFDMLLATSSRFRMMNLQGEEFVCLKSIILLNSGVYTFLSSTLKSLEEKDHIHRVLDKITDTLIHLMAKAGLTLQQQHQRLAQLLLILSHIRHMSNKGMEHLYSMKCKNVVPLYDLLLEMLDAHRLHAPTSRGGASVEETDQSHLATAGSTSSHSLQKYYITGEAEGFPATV
Put plainly: ER degradation activity, in-cell western blot analysis in T47D cells. It counts as cell-based. Conditions: 16 hours, Table A does not say which cell line (T47D or MCF7), read-out: Potency (DC50). The essentials:
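Cells were seeded overnight, exposed to diluted compounds for 16 hours, then stained with primary antibodies and with infrared-labelled secondary antibodies (1:1000, 1 h RT). Plates were scanned on a CLX reader, and ER levels were normalised to DMSO-treated wells.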
With `CN(C1CCN(c2ccc([C@@H]3c4ccc(O)cc4CC[C@@H]3c3ccccc3)cc2)CC1)N1CCC(CN2Cc3cc4c(cc3C2)C(=O)N(C2CCC(=O)NC2=O)C4)CC1` (mixture of isomers) [E 300, 3-(6-((1-((1-(4-((1R,2S)-6-hydroxy-2-phenyl-1,2,3,4-tetrahydronaphthalen-1-yl)phenyl)piperidin-4-yl)(methyl)amino)piperidin-4-yl)methyl)-1-oxo-3,5,6,7-tetrahydropyrrolo[3,4-f]isoindol-2(1H)-yl)piperidine-2,6-dione], the DC50 (as a rule, the concentration giving 50% degradation) was over 100 nM. Still for that read-out and setting: then `C[C@@H]1Cc2c([nH]c3ccccc23)[C@@H](c2c(F)cc(C3CCN(C[C@H]4CC[C@H](N5Cc6cc7c(cc6C5)C(=O)N(C5CCC(=O)NC5=O)C7=O)CC4)CC3)cc2F)N1CC(F)F` (stereo partly drawn) [E 366, 6-((1R,4r)-4-((4-(4-((1R,3R)-2-(2,2-difluoroethyl)-3-methyl-2,3,4,9-tetrahydro-1H-pyrido[3,4-b]indol-1-yl)-3,5-difluorophenyl)piperidin-1-yl)methyl)cyclohexyl)-2-(2,6-dioxopiperidin-3-yl)-6,7-dihydropyrrolo[3,4-f]isoindole-1,3(2H,5H)-dione], with over 100 nM; and `O=C1CCC(N2Cc3cc4c(cc3C2=O)CN(C(=O)[C@H]2CC[C@H](N3CC(Oc5ccc([C@@H]6c7ccc(O)cc7CC[C@@H]6c6ccccc6)cc5)C3)CC2)C4)C(=O)N1` (single isomer, unassigned) [E 357], with under 10 nM. The same measure, in the same setting: then `C[C@@H]1Cc2cc(O)ccc2[C@@H](c2c(F)cc(N3CC4(CCN(C(=O)CN5Cc6cc7c(cc6C5)C(=O)N(C5CCC(=O)NC5=O)C7)C4)C3)cc2F)N1CC(F)F` (stereo partly drawn) [E 36, 3-(6-(2-(2-(4-((1S,3R)-2-(2,2-difluoroethyl)-6-hydroxy-3-methyl-1,2,3,4-tetrahydroisoquinolin-1-yl)-3,5-difluorophenyl)-2,6-diazaspiro[3.4]octan-6-yl)-2-oxoethyl)-1-oxo-3,5,6,7-tetrahydropyrrolo[3,4-f]isoindol-2(1H)-yl)piperidine-2,6-dione], with under 10 nM; and `C[C@@H]1Cc2c([nH]c3ccccc23)[C@@H](c2c(F)cc(N3CCC(CN4CC(C(=O)N5Cc6cc7c(cc6C5)C(=O)N(C5CCC(=O)NC5=O)C7=O)C4)CC3)cc2F)N1CC(F)F` (stereo partly drawn) [E 239, 6-(1-((1-(4-((1R,3R)-2-(2,2-difluoroethyl)-3-methyl-2,3,4,9-tetrahydro-1H-pyrido[3,4-b]indol-1-yl)-3,5-difluorophenyl)piperidin-4-yl)methyl)azetidine-3-carbonyl)-2-(2,6-dioxopiperidin-3-yl)-6,7-dihydropyrrolo[3,4-f]isoindole-1,3(2H,5H)-dione], with over 100 nM.

Take `C[C@@H]1Cc2cc(O)ccc2[C@@H](c2c(F)cc(N3CC4(CN(C(=O)CN5Cc6cc7c(cc6C5)C(=O)N(C5CCC(=O)NC5=O)C7=O)C4)C3)cc2F)N1CC(F)F` (stereo partly drawn) [E 42, 6-(2-(6-(4-((1S,3R)-2-(2,2-difluoroethyl)-6-hydroxy-3-methyl-1,2,3,4-tetrahydroisoquinolin-1-yl)-3,5-difluorophenyl)-2,6-diazaspiro[3.3]heptan-2-yl)-2-oxoethyl)-2-(2,6-dioxopiperidin-3-yl)-6,7-dihydropyrrolo[3,4-f]isoindole-1,3(2H,5H)-dione]: the DC50 was under 10 nM. Same read-out and setting: then `O=C1CCC(N2C(=O)c3cc4c(cc3C2=O)CN(CC(=O)N2CC(n3cc(-c5ccc([C@@H]6c7ccc(O)cc7CC[C@@H]6c6ccccc6)cc5)cn3)C2)C4)C(=O)N1` (stereo partly drawn) [E 215, 2-(2,6-dioxopiperidin-3-yl)-6-(2-(3-(4-(4-((1R,2S)-6-hydroxy-2-phenyl-1,2,3,4-tetrahydronaphthalen-1-yl)phenyl)-1H-pyrazol-1-yl)azetidin-1-yl)-2-oxoethyl)-6,7-dihydropyrrolo[3,4-f]isoindole-1,3(2H,5H)-dione], with over 100 nM.

With `C[C@@H]1Cc2c([nH]c3ccccc23)[C@@H](c2c(F)cc(N3CCC(CN4CCC(C(=O)N5Cc6cc7c(cc6C5)C(=O)N(C5CCC(=O)NC5=O)C7=O)CC4)CC3)cc2F)N1CC(F)F` (stereo partly drawn) [E 238, 6-(1-((1-(4-((1R,3R)-2-(2,2-difluoroethyl)-3-methyl-2,3,4,9-tetrahydro-1H-pyrido[3,4-b]indol-1-yl)-3,5-difluorophenyl)piperidin-4-yl)methyl)piperidine-4-carbonyl)-2-(2,6-dioxopiperidin-3-yl)-6,7-dihydropyrrolo[3,4-f]isoindole-1,3(2H,5H)-dione], the DC50 was over 100 nM. With `C[C@@H]1Cc2cc(O)ccc2[C@@H](c2c(F)cc(N3CCC(N4CC(CN5Cc6cc7c(cc6C5)C(=O)N(C5CCC(=O)NC5=O)C7=O)C4)CC3)cc2F)N1CC(F)F` (stereo partly drawn) [E 46, 6-((1-(1-(4-((1S,3R)-2-(2,2-difluoroethyl)-6-hydroxy-3-methyl-1,2,3,4-tetrahydroisoquinolin-1-yl)-3,5-difluorophenyl)piperidin-4-yl)azetidin-3-yl)methyl)-2-(2,6-dioxopiperidin-3-yl)-6,7-dihydropyrrolo[3,4-f]isoindole-1,3(2H,5H)-dione], the DC50 is over 100 nM.

The same experiment, now with this note: compounds 16 hours, Table A does not say whether T47D or MCF7, read-out: Potency (DC50).
With `C[C@@H]1Cc2cc(O)ccc2[C@@H](c2c(F)cc(C(=O)N3CCC4(CC3)CC(CN3Cc5cc6c(cc5C3)C(=O)N(C3CCC(=O)NC3=O)C6=O)C4)cc2F)N1CC(F)F` (stereo partly drawn) [E 465, 6-((7-(4-((1S,3R)-2-(2,2-difluoroethyl)-6-hydroxy-3-methyl-1,2,3,4-tetrahydroisoquinolin-1-yl)-3,5-difluorobenzoyl)-7-azaspiro[3.5]nonan-2-yl)methyl)-2-(2,6-dioxopiperidin-3-yl)-6,7-dihydropyrrolo[3,4-f]isoindole-1,3(2H,5H)-dione], the DC50 was over 100 nM. Still for that read-out and setting: under `C[C@@H]1Cc2c([nH]c3ccccc23)[C@@H](c2ncc(C3=CCC(C(=O)N4CCC(N5Cc6cc7c(cc6C5)C(=O)N(C5CCC(=O)NC5=O)C7=O)CC4)CC3)cc2F)N1CC(C)(C)F` (stereo partly drawn) [E 484, 2-(2,6-dioxopiperidin-3-yl)-6-(1-(4-(5-fluoro-6-((1S,3R)-2-(2-fluoro-2-methylpropyl)-3-methyl-2,3,4,9-tetrahydro-1H-pyrido[3,4-b]indol-1-yl)pyridin-3-yl)cyclohex-3-ene-1-carbonyl)piperidin-4-yl)-6,7-dihydropyrrolo[3,4-f]isoindole-1,3(2H,5H)-dione] stands over 100 nM; under `C[C@@H]1Cc2c([nH]c3ccccc23)[C@@H](c2c(F)cc(C3=CCC(C(=O)N4CCC(N5Cc6cc7c(cc6C5)C(=O)N(C5CCC(=O)NC5=O)C7=O)CC4)CC3)cc2F)N1CC1(F)CC1` (stereo partly drawn) [E 485, 6-(1-(3′,5′-difluoro-4′-((1R,3R)-2-((1-fluorocyclopropyl)methyl)-3-methyl-2,3,4,9-tetrahydro-1H-pyrido[3,4-b]indol-1-yl)-2,3,4,5-tetrahydro-[1,1′-biphenyl]-4-carbonyl)piperidin-4-yl)-2-(2,6-dioxopiperidin-3-yl)-6,7-dihydropyrrolo[3,4-f]isoindole-1,3(2H,5H)-dione], over 100 nM; under `C[C@@H]1Cc2cc(O)ccc2[C@@H](c2c(F)cc(OCC3CCC4(CC3)CN(C(=O)CN3Cc5cc6c(cc5C3)C(=O)N(C3CCC(=O)NC3=O)C6=O)C4)cc2F)N1CC(F)F` (stereo partly drawn) [E 453, 6-(2-(7-((4-((1S,3R)-2-(2,2-difluoroethyl)-6-hydroxy-3-methyl-1,2,3,4-tetrahydroisoquinolin-1-yl)-3,5-difluorophenoxy)methyl)-2-azaspiro[3.5]nonan-2-yl)-2-oxoethyl)-2-(2,6-dioxopiperidin-3-yl)-6,7-dihydropyrrolo[3,4-f]isoindole-1,3(2H,5H)-dione], under 10 nM.

(Values after US20240190880A1 (THE REGENTS OF THE UNIVERSITY OF MICHIGAN, priority 2021, published 2024).)
